Data reported in PubChem BioAssay AID1963972 (Molecular Pharmacology Branch, DTP, NCI, 2024).

Tested on: 945468-187-T-J2-PDC spheroids viability
Test: Anticancer human tumor 945468-187-T-J2-PDC patient-derived rectal carcinoma cell line growth inhibition [PI3K]
Details: spheroids with HUVEC and MSC; for IC50: curve of first compound; for viability, T/C: stronger effect = lower value; active = viability on the fitted dose curve at most 10% of control; inactive = the rest
In short: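 Stroma-containing spheroids: tumor line, pooled-donor HUVEC, hMSC. Treatments: targeted agents with PI3K inhibitors. Dosing: clinically relevant, half-log spacing, 10 microM ceiling without known Cmax. Read-out: cell viability.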

[1] = second compound 0.0316 µM, first compound 0.000316 µM
[2] = second compound 0.0316 µM, first compound 0.001 µM
[3] = second compound 0.0316 µM, first compound 0.00316 µM
[4] = second compound 0.0316 µM, first compound 0.01 µM
[5] = second compound 0.0316 µM, first compound 0.0316 µM
[6] = second compound 0.0316 µM, first compound 0.1 µM
[7] = second compound 0.1 µM, first compound 0.000316 µM
[8] = second compound 0.1 µM, first compound 0.001 µM
[9] = second compound 0.1 µM, first compound 0.00316 µM
[10] = second compound 0.1 µM, first compound 0.01 µM
[11] = second compound 0.1 µM, first compound 0.0316 µM
[12] = second compound 0.1 µM, first compound 0.1 µM
[13] = second compound 0.316 µM, first compound 0.000316 µM
[14] = second compound 0.316 µM, first compound 0.001 µM
[15] = second compound 0.316 µM, first compound 0.00316 µM
[16] = second compound 0.316 µM, first compound 0.01 µM
[17] = second compound 0.316 µM, first compound 0.0316 µM
[18] = second compound 0.316 µM, first compound 0.1 µM
[19] = second compound 1 µM, first compound 0.000316 µM
[20] = second compound 1 µM, first compound 0.001 µM
[21] = second compound 1 µM, first compound 0.00316 µM
[22] = second compound 1 µM, first compound 0.01 µM
[23] = second compound 1 µM, first compound 0.0316 µM
[24] = second compound 1 µM, first compound 0.1 µM
[25] = second compound 3.16 µM, first compound 0.000316 µM
[26] = second compound 3.16 µM, first compound 0.001 µM
[27] = second compound 3.16 µM, first compound 0.00316 µM
[28] = second compound 3.16 µM, first compound 0.01 µM
[29] = second compound 3.16 µM, first compound 0.0316 µM
[30] = second compound 3.16 µM, first compound 0.1 µM
[31] = second compound 10 µM, first compound 0.000316 µM
[32] = second compound 10 µM, first compound 0.001 µM
[33] = second compound 10 µM, first compound 0.00316 µM
[34] = second compound 10 µM, first compound 0.01 µM
[35] = second compound 10 µM, first compound 0.0316 µM
[36] = second compound 10 µM, first compound 0.1 µM
[37] = second compound 0.0316 µM, first compound 0.316 µM
[38] = second compound 0.0316 µM, first compound 1 µM
[39] = second compound 0.0316 µM, first compound 3.16 µM
[40] = second compound 0.0316 µM, first compound 10 µM
[41] = second compound 0.1 µM, first compound 0.316 µM
[42] = second compound 0.1 µM, first compound 1 µM
[43] = second compound 0.1 µM, first compound 3.16 µM
[44] = second compound 0.1 µM, first compound 10 µM
[45] = second compound 0.316 µM, first compound 0.316 µM
[46] = second compound 0.316 µM, first compound 1 µM
[47] = second compound 0.316 µM, first compound 3.16 µM
[48] = second compound 0.316 µM, first compound 10 µM
[49] = second compound 1 µM, first compound 0.316 µM
[50] = second compound 1 µM, first compound 1 µM
[51] = second compound 1 µM, first compound 3.16 µM
[52] = second compound 1 µM, first compound 10 µM
[53] = second compound 3.16 µM, first compound 0.316 µM
[54] = second compound 3.16 µM, first compound 1 µM
[55] = second compound 3.16 µM, first compound 3.16 µM
[56] = second compound 3.16 µM, first compound 10 µM
[57] = second compound 10 µM, first compound 0.316 µM
[58] = second compound 10 µM, first compound 1 µM
[59] = second compound 10 µM, first compound 3.16 µM
[60] = second compound 10 µM, first compound 10 µM
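Also: spheroids exposed to compounds for seven days before reading.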

CC(=O)c1c(C)c2cnc(Nc3ccc(N4CCNCC4)cn3)nc2n(C2CCCC2)c1=O + CC(Nc1ncnc2nc[nH]c12)c1cc2cccc(Cl)c2c(=O)n1-c1ccccc1
> 0.1 µM: IC50 (second compound 0.0316 µM) | IC50 (second compound 0.1 µM) | IC50 (second compound 0.316 µM) | IC50 (second compound 1 µM) | IC50 (second compound 3.16 µM) | IC50 (second compound 10 µM)
inactive: viability, T/C [1] 104% | viability, T/C [2] 80% | viability, T/C [3] 101% | viability, T/C [4] 100% | viability, T/C [5] 90% | viability, T/C [6] 122% | viability, T/C [7] 98.9% | viability, T/C [8] 101% | viability, T/C [9] 89.4% | viability, T/C [10] 80.3% | viability, T/C [11] 104% | viability, T/C [12] 101% | viability, T/C [13] 82.3% | viability, T/C [14] 108% | viability, T/C [15] 103% | viability, T/C [16] 98.4% | viability, T/C [17] 113% | viability, T/C [18] 88.7% | viability, T/C [19] 91.2% | viability, T/C [20] 103% | viability, T/C [21] 85.4% | viability, T/C [22] 89.8% | viability, T/C [23] 90.7% | viability, T/C [24] 109% | viability, T/C [25] 87.8% | viability, T/C [26] 87% | viability, T/C [27] 102% | viability, T/C [28] 99.5% | viability, T/C [29] 111% | viability, T/C [30] 118% | viability, T/C [31] 101% | viability, T/C [32] 100% | viability, T/C [33] 101% | viability, T/C [34] 87.9% | viability, T/C [35] 99.5% | viability, T/C [36] 121%

CC(C)n1nc(-c2ccc3oc(N)nc3c2)c2c(N)ncnc21 + CC(Nc1ncnc2nc[nH]c12)c1cc2cccc(Cl)c2c(=O)n1-c1ccccc1
inactive: viability, T/C [1] 93.8% | viability, T/C [2] 87.3% | viability, T/C [3] 96.4% | viability, T/C [4] 107% | viability, T/C [5] 117% | viability, T/C [6] 62.8% | viability, T/C [7] 96.2% | viability, T/C [8] 94.3% | viability, T/C [9] 99.4% | viability, T/C [10] 84.2% | viability, T/C [11] 115% | viability, T/C [12] 73.5% | viability, T/C [13] 97.1% | viability, T/C [14] 89% | viability, T/C [15] 94.7% | viability, T/C [16] 134% | viability, T/C [17] 96.1% | viability, T/C [18] 71% | viability, T/C [19] 87.6% | viability, T/C [20] 136% | viability, T/C [21] 95.8% | viability, T/C [22] 93.2% | viability, T/C [23] 78.2% | viability, T/C [24] 55% | viability, T/C [25] 85.5% | viability, T/C [26] 107% | viability, T/C [27] 90.3% | viability, T/C [28] 106% | viability, T/C [29] 92.9% | viability, T/C [30] 62.3% | viability, T/C [31] 109% | viability, T/C [32] 84.5% | viability, T/C [33] 108% | viability, T/C [34] 88.4% | viability, T/C [35] 78.2% | viability, T/C [36] 82.8%
> 0.1 µM: IC50 (second compound 0.0316 µM) | IC50 (second compound 0.1 µM) | IC50 (second compound 0.316 µM) | IC50 (second compound 1 µM) | IC50 (second compound 3.16 µM) | IC50 (second compound 10 µM)

CC1(C)CCC(CN2CCN(c3ccc(C(=O)NS(=O)(=O)c4ccc(NCC5CCOCC5)c([N+](=O)[O-])c4)c(Oc4cnc5[nH]ccc5c4)c3)CC2)=C(c2ccc(Cl)cc2)C1 + CC(Nc1ncnc2nc[nH]c12)c1cc2cccc(Cl)c2c(=O)n1-c1ccccc1
inactive: viability, T/C [5] 91.7% | viability, T/C [6] 92.2% | viability, T/C [37] 99.8% | viability, T/C [38] 98.2% | viability, T/C [39] 94% | viability, T/C [40] 81% | viability, T/C [11] 82.3% | viability, T/C [12] 75.7% | viability, T/C [41] 84.5% | viability, T/C [42] 78.6% | viability, T/C [43] 96.5% | viability, T/C [44] 79.1% | viability, T/C [17] 97.1% | viability, T/C [18] 93.4% | viability, T/C [45] 93.2% | viability, T/C [46] 100% | viability, T/C [47] 119% | viability, T/C [48] 80.5% | viability, T/C [23] 97.4% | viability, T/C [24] 87.8% | viability, T/C [49] 103% | viability, T/C [50] 92.9% | viability, T/C [51] 107% | viability, T/C [52] 63.2% | viability, T/C [29] 96% | viability, T/C [30] 115% | viability, T/C [53] 84.8% | viability, T/C [54] 134% | viability, T/C [55] 102% | viability, T/C [56] 86.6% | viability, T/C [35] 94.5% | viability, T/C [36] 81.5% | viability, T/C [57] 104% | viability, T/C [58] 124% | viability, T/C [59] 97.7% | viability, T/C [60] 84.8%
> 10 µM: IC50 (second compound 0.0316 µM) | IC50 (second compound 0.1 µM) | IC50 (second compound 0.316 µM) | IC50 (second compound 1 µM) | IC50 (second compound 3.16 µM) | IC50 (second compound 10 µM)

CCCS(=O)(=O)Nc1ccc(F)c(C(=O)c2c[nH]c3ncc(-c4ccc(Cl)cc4)cc23)c1F + CC(Nc1ncnc2nc[nH]c12)c1cc2cccc(Cl)c2c(=O)n1-c1ccccc1
5.4 µM: IC50 (second compound 0.316 µM)
active: viability, T/C [40] 2.78% | viability, T/C [44] 4.23% | viability, T/C [48] 4.32% | viability, T/C [52] 4.79% | viability, T/C [56] 5.45% | viability, T/C [60] 6.8%
5.92 µM: IC50 (second compound 3.16 µM)
inactive: viability, T/C [5] 105% | viability, T/C [6] 103% | viability, T/C [37] 104% | viability, T/C [38] 89.2% | viability, T/C [39] 73.4% | viability, T/C [11] 132% | viability, T/C [12] 83.2% | viability, T/C [41] 89% | viability, T/C [42] 93.8% | viability, T/C [43] 83.8% | viability, T/C [17] 107% | viability, T/C [18] 110% | viability, T/C [45] 85.2% | viability, T/C [46] 107% | viability, T/C [47] 89.6% | viability, T/C [23] 104% | viability, T/C [24] 99.2% | viability, T/C [49] 93% | viability, T/C [50] 99.6% | viability, T/C [51] 108% | viability, T/C [29] 98.6% | viability, T/C [30] 106% | viability, T/C [53] 100% | viability, T/C [54] 98.8% | viability, T/C [55] 113% | viability, T/C [35] 98.2% | viability, T/C [36] 93.9% | viability, T/C [57] 101% | viability, T/C [58] 95.6% | viability, T/C [59] 93.5%
5.63 µM: IC50 (second compound 10 µM)
4.52 µM: IC50 (second compound 0.0316 µM)
5.03 µM: IC50 (second compound 0.1 µM)
5.82 µM: IC50 (second compound 1 µM)
